Results published in patent US20240225066A1, “MOGROSIDE COMPOUNDS AND THEIR COMESTIBLE USE” (Firmenich Incorporated, priority 2021, published 2024).
pEC50: −log10 of the molar value.

Molecular target: T1, recombinant human sweet receptor (Homo sapiens, UniProt Q7RTX0+Q8TE23)
T1 construct: expressed in transfected cells
T1 sequence (Q8TE23 20-839): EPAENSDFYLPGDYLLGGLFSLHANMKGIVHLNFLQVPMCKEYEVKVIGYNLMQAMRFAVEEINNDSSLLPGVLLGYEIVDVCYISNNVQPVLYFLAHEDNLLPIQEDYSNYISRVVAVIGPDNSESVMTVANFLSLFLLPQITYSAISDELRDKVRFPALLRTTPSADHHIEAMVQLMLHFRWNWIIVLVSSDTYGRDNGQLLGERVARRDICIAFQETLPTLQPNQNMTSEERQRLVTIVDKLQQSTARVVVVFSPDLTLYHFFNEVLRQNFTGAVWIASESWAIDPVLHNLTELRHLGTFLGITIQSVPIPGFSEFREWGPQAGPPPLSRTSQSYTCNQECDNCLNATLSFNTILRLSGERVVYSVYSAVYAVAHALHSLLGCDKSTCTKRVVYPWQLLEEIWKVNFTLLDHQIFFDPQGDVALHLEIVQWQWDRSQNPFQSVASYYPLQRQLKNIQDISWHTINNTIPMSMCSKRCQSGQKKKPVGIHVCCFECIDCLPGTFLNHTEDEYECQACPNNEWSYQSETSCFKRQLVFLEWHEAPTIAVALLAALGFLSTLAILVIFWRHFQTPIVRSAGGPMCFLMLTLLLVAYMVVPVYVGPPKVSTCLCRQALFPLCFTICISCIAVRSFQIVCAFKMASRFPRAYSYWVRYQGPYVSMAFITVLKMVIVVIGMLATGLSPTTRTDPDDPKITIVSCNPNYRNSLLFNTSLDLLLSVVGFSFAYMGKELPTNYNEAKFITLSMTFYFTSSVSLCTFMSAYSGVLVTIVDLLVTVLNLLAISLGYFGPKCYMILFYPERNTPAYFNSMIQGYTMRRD
T1 sequence (Q7RTX0 21-852): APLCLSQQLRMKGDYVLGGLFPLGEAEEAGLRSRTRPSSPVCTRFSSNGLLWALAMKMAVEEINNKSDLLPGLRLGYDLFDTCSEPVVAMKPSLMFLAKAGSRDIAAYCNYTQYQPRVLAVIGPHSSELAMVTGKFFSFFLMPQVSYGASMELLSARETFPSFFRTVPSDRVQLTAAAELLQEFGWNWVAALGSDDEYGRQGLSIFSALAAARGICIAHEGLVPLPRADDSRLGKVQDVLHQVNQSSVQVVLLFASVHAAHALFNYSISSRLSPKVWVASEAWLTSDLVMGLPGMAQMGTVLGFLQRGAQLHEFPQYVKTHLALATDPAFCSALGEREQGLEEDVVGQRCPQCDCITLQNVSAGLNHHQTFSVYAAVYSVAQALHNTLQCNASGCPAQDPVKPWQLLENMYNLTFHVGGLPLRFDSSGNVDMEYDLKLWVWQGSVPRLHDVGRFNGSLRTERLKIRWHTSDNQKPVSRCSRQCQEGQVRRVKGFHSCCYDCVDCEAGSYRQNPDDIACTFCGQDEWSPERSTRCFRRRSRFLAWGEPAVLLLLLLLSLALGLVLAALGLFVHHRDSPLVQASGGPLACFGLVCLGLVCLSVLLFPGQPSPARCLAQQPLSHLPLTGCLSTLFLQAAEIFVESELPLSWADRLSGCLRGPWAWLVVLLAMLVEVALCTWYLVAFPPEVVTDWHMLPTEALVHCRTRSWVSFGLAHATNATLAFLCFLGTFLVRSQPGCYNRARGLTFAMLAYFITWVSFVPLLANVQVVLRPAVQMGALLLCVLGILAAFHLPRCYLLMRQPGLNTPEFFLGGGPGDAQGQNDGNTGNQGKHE
Test: Sweet receptor assay, calcium imaging (Fluo-4 AM) in cells stably expressing the receptor and chimeric G-protein G16g25
Assay type: cell-based
Description: Cells stably expressing the recombinant human sweet receptor and the chimeric G-protein G16g25 were dispensed in a 384-well clear bottom plate (Fisher) and incubated overnight at 37° C. and 6% CO2. On the day of the experiment, cells were loaded with 4 μM of the calcium indicator Fluo-4 AM (Invitrogen) in D-PBS for 1 hour at room temperature and excess dye washed away with D-PBS, leaving a residual volume of 25 μL/well. After 30 minutes of rest time the cell plate and the compound plate were transferred into a fluorometric imaging plate reader (Molecular Devices). To determine potency, compound plates were prepared with serial dilutions of compound at 2× the final assay concentration in D-PBS. Imaging and data analysis was performed according to the procedures set forth in Servant et al., PROC. NAT'L ACAD. SCI. USA, vol. 107(10), pp. 4746-51 (2010).

C[C@H](CC[C@@H](O[C@@H]1O[C@H](CO[C@H]2O[C@H](CO)[C@@H](O)[C@H](O)[C@H]2O)[C@@H](O)[C@H](O)[C@H]1O[C@@H]1O[C@H](CO)[C@@H](O)[C@H](O)[C@H]1O)C(C)(C)O)[C@H]1CC[C@@]2(C)C3CC=C4[C@@H](CC[C@H](O[C@@H]5O[C@H](CO)[C@@H](O[C@@H]6O[C@H](CO)[C@@H](O)[C@H](O)[C@H]6O)[C@H](O)[C@H]5O)C4(C)C)[C@]3(C)[C@H](O)C[C@]12C (some centres unmarked) [MC1]
pEC50 (Fluo-4 AM calcium signal, fluorometric imaging plate reader, read-out: EC50 of the dose-response curve in the sweet taste assays): 5.10
dose-response effect in the sweet taste assays (serial dilutions of compound): showed a dose-response effect indicative of its utility as a sweetener
